Measured values reported in article PMC9307329, “Enzymes Inhibition and Antioxidant Potential of Medicinal Plants Growing in Oman” (BioMed Research International, 2022).

Biological target: Jack bean urease (Canavalia ensiformis, UniProt P07374)
Settings: substrate urea; phosphate buffer pH […]; […]°C; […] min

Jack bean urease, sequence (P07374 whole entry, looked up): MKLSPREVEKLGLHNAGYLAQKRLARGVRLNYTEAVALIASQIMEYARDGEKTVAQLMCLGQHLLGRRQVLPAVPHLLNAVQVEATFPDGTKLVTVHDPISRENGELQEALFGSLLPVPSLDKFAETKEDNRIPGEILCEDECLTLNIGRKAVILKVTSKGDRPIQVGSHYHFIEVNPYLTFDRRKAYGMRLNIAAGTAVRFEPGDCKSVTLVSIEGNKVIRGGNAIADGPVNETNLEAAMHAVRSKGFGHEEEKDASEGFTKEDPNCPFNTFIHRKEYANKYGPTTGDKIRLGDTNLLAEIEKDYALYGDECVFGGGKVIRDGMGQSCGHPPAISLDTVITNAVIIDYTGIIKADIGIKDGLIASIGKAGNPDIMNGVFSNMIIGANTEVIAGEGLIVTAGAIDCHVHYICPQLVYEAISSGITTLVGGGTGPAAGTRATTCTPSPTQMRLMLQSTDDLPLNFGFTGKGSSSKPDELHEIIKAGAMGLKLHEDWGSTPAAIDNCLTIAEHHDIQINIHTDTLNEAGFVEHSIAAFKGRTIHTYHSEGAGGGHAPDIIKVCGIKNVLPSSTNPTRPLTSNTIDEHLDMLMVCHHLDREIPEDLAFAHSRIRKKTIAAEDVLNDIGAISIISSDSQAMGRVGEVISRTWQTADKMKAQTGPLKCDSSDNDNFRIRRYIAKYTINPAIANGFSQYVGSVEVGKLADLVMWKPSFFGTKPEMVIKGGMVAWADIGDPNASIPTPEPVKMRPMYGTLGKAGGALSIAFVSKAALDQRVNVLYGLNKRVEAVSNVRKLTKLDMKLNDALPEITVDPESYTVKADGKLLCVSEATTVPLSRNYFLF

NC(N)=S [Thiourea]
Urease IC50 ± SEM: 1.58 ± 0.95 µg/mL
